Assay results published in US20220143061A1, “3'3'-CYCLIC DINUCLEOTIDES AND PRODRUGS THEREOF” (INSTITUTE OF ORGANIC CHEMISTRY AND BIOCHEMISTRY ASCR, V.V.I., priority 2019, published 2022).
Read-outs that look alike come from different tables or passages of the source.

Experiments:
[1] = biological target: T1, human wild type STING (WT STING) (Homo sapiens, UniProt Q86WV6, H232R); test: Digitonin assay using 293T wtSTING-FL reporter cells; format: cell-based; settings: 293T wtSTING-FL cells, digitonin buffer 30 minutes, then 5 hours; ISRE firefly luciferase
T1 construct: host or cells: 293T cells (ATCC CRL-3216), stably double transfected with pUNO1-hSTING-WT and pGL64.27-4×ISRE
T1 sequence (Q86WV6 whole entry H232R): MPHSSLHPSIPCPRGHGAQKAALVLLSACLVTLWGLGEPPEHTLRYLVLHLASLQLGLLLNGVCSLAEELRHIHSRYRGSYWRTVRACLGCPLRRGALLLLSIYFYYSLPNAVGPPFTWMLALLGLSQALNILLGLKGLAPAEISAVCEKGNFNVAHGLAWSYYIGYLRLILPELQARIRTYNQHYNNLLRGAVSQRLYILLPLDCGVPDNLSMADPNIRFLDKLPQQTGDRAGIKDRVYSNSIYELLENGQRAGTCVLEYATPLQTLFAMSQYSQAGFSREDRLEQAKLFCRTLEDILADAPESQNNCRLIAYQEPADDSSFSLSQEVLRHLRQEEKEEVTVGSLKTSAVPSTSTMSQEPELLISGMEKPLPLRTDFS
Source text: (§1) Two complementary oligonucleotides of the sequence […] […] […] […] […] The oligonucleotides were mixed in equal molar amounts, hybridized, and cleaved by restriction endonucleases HindIII (cat. #. R0104S, NEB, Ipswich, USA) and BglII (cat. #R0144S, NEB, Ipswich, USA). Ultimately, they were ligated into plasmid pGL4.27 (cat. #E6651, Promega, Madison, USA) linearized with the same enzymes. As result the sequence with four ISRE sites was placed upstream of the minimum promoter of firefly luciferase reporter gene.
(§2) After 5 minutes incubation at room temperature (RT), 250 μL of the mixture was added dropwise to the cells in one well. Cells were incubated 36 hours at 37° C. with 5% CO2, and then detached with 0.05% Trypsin and 0.22 g/L EDTA (both cat. #L0941, Biowest, Riverside, USA).
(§3) Transfected cells were seeded onto poly-D-lysine coated six well plates at density 50,000 cells per 1 cm^2 in DMEM medium with high glucose containing 10% heat inactivated FBS, 30 μg/mL blasticidin (cat. #ant-b1-05, InvivoGen, San Diego, USA), 0.06 mg/ml Penicillin G and 0.1 mg/ml Streptomycin Sulfate (both cat. #. L0018, Biowest, Riverside, USA). The medium was replenished every 3-4 days until visible colonies of cells resistant to blasticidin were formed.
(§4) Blasticidin resistant cells stably expressing WT STING were further transfected with pGL64.27-4×ISRE plasmid following the same procedure as described above. […] Homogeneous culture of stably double transfected cells was prepared by limiting dilution of cells in 96 well plates and wells with cells were selected that originated from a single cell.
The medium was removed next day and three fold serial dilutions of compounds in Digitonin buffer containing 50 mmol·l^−1 HEPES (cat. #H3375, Sigma Aldrich, Czech Republic) pH 7.0, 100 mmol·l^−1 KCl, 3 mmol·l^−1 MgCl2, 0.1 mmol·l^−1 DTT (cat. #D0632, Sigma Aldrich, Czech Republic), 85 mmol·l^−1 Sucrose (cat. #S7903, Sigma Aldrich, Czech Republic), 0.2% BSA (cat. #A2153, Sigma Aldrich, Czech Republic), 1 mmol·l^−1 ATP (cat. #A1852, Sigma Aldrich, Czech Republic), 0.1 mmol·l^−1 GTP (cat. #G8877, Sigma Aldrich, Czech Republic), and 10 μg/mL Digitonin A (cat. #D141, Sigma Aldrich, Czech Republic) were added to the cells. The buffer was removed after 30 minutes incubation at 37° C. with 5% C02, the cells were washed once with 100 μl of cultivation medium, and 100 μl of medium was added to each well. The plates with cells were incubated for 5 hours at 37° C. with 5% CO2, 50 μl of the medium was removed and 30 μl of ONE-Glo™ Luciferase Assay System reagent (cat. #E6120, Promega, Madison, USA) was added to each well. Luminesce was read on Synergy H1 (Biotek, Winooski, USA).

[2] = biological target: T1, human wild type STING (WT STING); test: 293T WT STING standard reporter assay; format: cell-based; settings: no digitonin, 7 hours, ISRE firefly luciferase
Source text: as §1, §2, §3, §4
The medium was removed the next day and three-fold serial dilutions of compounds in 100 μl medium were added to the cells. The plates were incubated for 7 hours at 37° C. with 5% CO2. Next 50 μl of the medium was removed from wells, and 30 μl of ONE-Glo™ Luciferase Assay System reagent (cat. #E6120, Promega, Madison, USA) was added to each well. Luminescence was read on Synergy H1 (Biotek, Winooski, USA).

[3] = biological target: T2, AQ STING (G230A-R293Q) (Homo sapiens, UniProt Q86WV6, G230A/H232R/R293Q); test: Differential Scanning Fluorimetry with AQ STING; format: binding; settings: thermal shift vs apoprotein; 150 μM CDN; truncated AQ STING 0.1 mg/ml
T2 construct: 8xHis (N, cleaved yes); SUMO (N, cleaved yes); made in house
T2 sequence (Q86WV6 140-343 G230A/H232R/R293Q): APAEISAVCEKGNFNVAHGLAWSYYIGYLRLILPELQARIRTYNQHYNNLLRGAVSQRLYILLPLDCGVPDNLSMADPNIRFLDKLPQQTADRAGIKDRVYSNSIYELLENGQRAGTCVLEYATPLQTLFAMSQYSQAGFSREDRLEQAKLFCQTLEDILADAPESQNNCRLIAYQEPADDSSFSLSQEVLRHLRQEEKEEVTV
Procedure: (§5) Purified PCR products were cleaved with restriction enzymes BamHI (cat. #R0136S, NEB, Ipswich, USA) and NotI (cat. #R0189S, NEB, Ipswich, USA) and cloned into the pSUMO vector linearized with the identical enzymes.
(§6) DNase I (cat. #D5025, Sigma Aldrich, Czech Republic) and RNase A (cat. #R6513, Sigma Aldrich, Czech Republic) were added (final concentration 50 μg/ml) together with MgCl2 (final concentration 5 mmol·l^−1) to the homogenate and bacteria were lysed using French Press G-M™ High-Pressure Cell Press Homogenizer (1500 psi, 3 cycles). […] The resin was poured into a chromatography column, washed with 50 ml buffer A (50 mmol·l^−1 TrisCl (pH 8.0), 800 mmol·l^−1 NaCl, 3 mmol·l^−1 β-mercaptoethanol; 10% glycerol; 20 mmol·l^−1 imidazole) and 8-His-SUMO tagged STING proteins were eluted with 15 ml buffer A containing 300 mmol·l^−1 imidazole. […] Proteins were concentrated with Amicon® Ultra-15 10 K device (cat. #UFC901008, Merck Millipore, Billerica, USA) and flash frozen in liquid N2.
(§7) 20 μL solutions of the reaction mixtures were pipetted in triplicates into 96 well optical reaction plates and thermal denaturation of samples were performed on real time PCR cycler (LightCycler® 480 Instrument II—Roche, Basel, Switzerland). The first derivative of the thermal denaturation curves was performed to calculate denaturing temperatures of STING-CDN complexes and STING apoproteins. The thermal shift for each CDN was calculated by subtracting the average denaturing temperature of STING apoprotein from the average denaturing temperature of STING CDN complex.

[4] = biological target: T3, WT STING (Homo sapiens, UniProt Q86WV6, H232R); test: Differential Scanning Fluorimetry with WT STING; format: binding; settings: thermal shift vs apoprotein; 150 μM CDN; truncated WT STING 0.1 mg/ml
T3 construct: 8xHis (N, cleaved yes); SUMO (N, cleaved yes); made in house
T3 sequence (Q86WV6 140-343 H232R): as the sequence (Q86WV6 140-343 G230A/H232R/R293Q) above, with A91G, Q154R counted along it
Procedure: as §5, §6, §7

[5] = tested on: peripheral blood mononuclear cell (PBMC); test: Peripheral blood mononuclear cell assay (cytokine levels); format: cell-based
Procedure: Selected compounds were tested in an in vitro peripheral blood mononuclear cell (PBMC) assay. […] Serially diluted tested compounds were added to wells in 50 μl of cultivation medium and cell were incubated with compounds for 1 h at 37° C. with 5% CO2. Plates with cells were then spun 500 g for 5 minutes and medium was removed. Cells were washed twice with the cell culture medium by the use of centrifugation and gently resuspended in 100 μl medium without compounds. After 15 hour incubation at 37° C. with 5% CO2, the cell culture medium was collected and the levels of interferon-alpha (INF-α), interferon-gamma (INF-γ) and tumor necrosis factor-alpha (TNF-α) were determined with ProcartaPlex Assays (ThermoFisher, Waltham, USA) and MAGPIX System (Merck KGaA, Darmstadt, Germany). […] Values reported are an average of runs from one to four donors.

[6] = 293T wtSTING-FL cells, read-out: 293T WT STING EC50
[7] = 1 h with compound, wash, 15 hour incubation, average of one to four donors, read-out: PBMC EC50 IFN-α
[8] = 1 h with compound, wash, 15 hour incubation, average of one to four donors, read-out: PBMC EC50 IFN-γ
[9] = 1 h with compound, wash, 15 hour incubation, average of one to four donors, read-out: PBMC EC50 TNF-α

| SMILES | EC50 [1] | EC50 [2, 6] | DSF ΔTm AQ STING [3] | DSF ΔTm WT STING [4] | EC50 ([2]; 293T WT STING EC50, 293T wtSTING-FL cells) | EC50 ([5]; read-out: PBMC EC50 IFN-α, 1 h with compound, wash, 15 hour incubation, average of one to four donors) | EC50 ([5]; read-out: PBMC EC50 IFN-γ, 1 h with compound, wash, 15 hour incubation, average of one to four donors) | EC50 ([5]; read-out: PBMC EC50 TNF-α, 1 h with compound, wash, 15 hour incubation, average of one to four donors) | EC50 [5, 7] | EC50 [5, 8] | EC50 [5, 9] |
| --- | --- | --- | --- | --- | --- | --- | --- | --- | --- | --- | --- |
| Nc1ncnc2c1ncn2[C@@H]1O[C@@H]2COP(=O)(O)O[C@H]3[C@@H](O)[C@H](n4cnc5c(N)ncnc54)O[C@@H]3COP(=O)(O)O[C@H]2[C@H]1O [3′3′-c-di-AMP, reference compound] | 300 nM | 202000 nM | 9.0 °C | 2.5 °C | – | – | – | – | – | – | – |
| Nc1nc2c(ncn2[C@@H]2O[C@@H]3COP(=O)(O)O[C@@H]4[C@H](O)[C@@H](COP(=O)(O)O[C@@H]2[C@@H]3O)O[C@H]4n2cnc3c(N)ncnc32)c(=O)[nH]1 [2′2′-cGAMP, reference compound] | 30 nM | 10200 nM | 19.4 °C | – | – | – | – | – | – | – | – |
| CCCCCCCCCCCC(=O)OCSP1(=O)CO[C@H]2[C@@H](F)[C@H](n3cnc4c(N)ncnc43)O[C@@H]2COP(=O)(SCOC(=O)CCCCCCCCCCC)O[C@H]2[C@@H](F)[C@H](n3cnc4c(N)ncnc43)O[C@@H]2CO1 (single isomer, unassigned) [Compound 43c] | – | – | – | – | 60 nM | 900 nM | 100 nM | 300 nM | – | – | – |
| CCC(C)(C)C(=O)OCOP1(=O)CO[C@H]2[C@@H](F)[C@H](n3cnc4c(N)ncnc43)O[C@@H]2COP(=O)(OCOC(=O)C(C)(C)CC)O[C@H]2[C@@H](F)[C@H](n3cnc4c(N)ncnc43)O[C@@H]2CO1 (single isomer, unassigned) [Compound 44c] | – | 6 nM | – | – | – | – | – | – | 100 nM | 1700 nM | 1000 nM |
| CC(C)OC(=O)OCOP1(=O)CO[C@H]2[C@@H](F)[C@H](n3cnc4c(N)ncnc43)O[C@@H]2COP(=O)(OCOC(=O)OC(C)C)O[C@H]2[C@@H](F)[C@H](n3cnc4c(N)ncnc43)O[C@@H]2CO1 (single isomer, unassigned) [Compound 42c] | – | 50 nM | – | – | – | – | – | – | 600 nM | 300 nM | 600 nM |
| CCC(C)(C)C(=O)OCOP1(=O)CO[C@H]2[C@@H](F)[C@H](n3cnc4c(N)ncnc43)O[C@@H]2COP(=O)(OCOC(=O)C(C)(C)CC)O[C@H]2[C@@H](F)[C@H](n3cnc4c(N)ncnc43)O[C@@H]2CO1 (single isomer, unassigned) [Compound 44a] | – | 10 nM | – | – | – | – | – | – | 1000 nM | 500 nM | 600 nM |
| Nc1ncnc2c1ncn2[C@@H]1O[C@@H]2COP(=O)(S)O[C@H]3[C@@H](F)[C@H](n4cnc5c(N)ncnc54)O[C@@H]3COP(=O)(S)CO[C@H]2[C@H]1F (single isomer, unassigned) [Compound 14a] | 60 nM | 15000 nM | 16.1 °C | 8.3 °C | – | – | – | – | – | – | – |
| CC(C)(C)C(=O)OCOP1(=O)CO[C@H]2[C@@H](F)[C@H](n3cnc4c(N)ncnc43)O[C@@H]2COP(=O)(OCOC(=O)C(C)(C)C)O[C@H]2[C@@H](F)[C@H](n3cnc4c(N)ncnc43)O[C@@H]2CO1 (mixture of isomers) [Compound 41b, {[(1R,6R,8R,9R,10R,16R,18R,19R)-8,18-bis(6-amino-9H-purin-9-yl)-13-{[(2,2-dimethylpropanoyl)oxy]methoxy}-9,19-difluoro-3,13-dioxo-2,4,7,11,14,17-hexaoxa-3λ^5,13λ^5-diphosphatricyclo[14.3.0.0^6,^10]nonadecan-3-yl]oxy}methyl 2,2-dimethylpropanoate] | – | 30 nM | – | – | – | – | – | – | 250 nM | 100 nM | 40 nM |
| CC1(C(=O)OCOP2(=O)CO[C@H]3[C@@H](F)[C@H](n4cnc5c(N)ncnc54)O[C@@H]3COP(=O)(OCOC(=O)C3(C)CCCCC3)O[C@H]3[C@@H](F)[C@H](n4cnc5c(N)ncnc54)O[C@@H]3CO2)CCCCC1 (single isomer, unassigned) [Compound 45c] | – | 70 nM | – | – | – | – | – | – | 300 nM | 200 nM | 400 nM |
| CCC(C)(C)C(=O)OCOP1(=O)CO[C@H]2[C@@H](F)[C@H](n3cnc4c(N)ncnc43)O[C@@H]2COP(=O)(OCOC(=O)C(C)(C)CC)O[C@H]2[C@@H](F)[C@H](n3cnc4c(N)ncnc43)O[C@@H]2CO1 (mixture of isomers) [Compound 44b, {[(1R,6R,8R,9R,10R,16R,18R,19R)-8,18-bis(6-amino-9H-purin-9-yl)-13-{[(2,2-dimethylbutanoyl)oxy]methoxy}-9,19-difluoro-3,13-dioxo-2,4,7,11,14,17-hexaoxa-3λ^5,13λ^5-diphosphatricyclo[14.3.0.0^6,^10]nonadecan-3-yl]oxy}methyl 2,2-dimethylbutanoate] | – | 10 nM | – | – | – | – | – | – | 200 nM | 200 nM | 200 nM |
| CC1(C(=O)OCOP2(=O)CO[C@H]3[C@@H](F)[C@H](n4cnc5c(N)ncnc54)O[C@@H]3COP(=O)(OCOC(=O)C3(C)CCCCC3)O[C@H]3[C@@H](F)[C@H](n4cnc5c(N)ncnc54)O[C@@H]3CO2)CCCCC1 (single isomer, unassigned) [Compound 45a] | – | 60 nM | – | – | – | – | – | – | 1000 nM | 8000 nM | 500 nM |
